The subject of experiment [1] is PRC2-mediated histone H3 methylation in Pfeiffer cells (EZH2 A677G). The experiment in a line: Tri-Methyl Histone H3 (Lys 27) sandwich ELISA in Pfeiffer cells. The experiment is classed as cell-based. The note with it: Homo sapiens, 96 hours incubation, H3K27me3 ELISA, read-out: IC50 (nM), Inhibition of EZH2-mediated Histone H3 Trimethylation. From the text:
The Pfeiffer cell line was established from a […] from a patient having metastatic diffuse large B-cell lymphoma (DLBCL). This cell line expresses a mutant form of the EZH2 enzyme (A677G) that results in enhanced EZH2 activity leading to increased methylation of histone H3 Lys27. Increased trimethylation of histone H3 Lys27 is believed to be implicated in tumorgenesis and poor clinical prognosis in lymphomas (McCabe et al., (2012) Nature 492:108-112).
Inhibition of PRC2-mediated histone H3 methylation by compounds of Formula (I) was measured by ELISA using a Tri-Methyl Histone H3 (Lys 27) Sandwich ELISA Kit (Cell Signaling Tech #7866C) in accordance with the manufacturer's instructions. Briefly, Pfeiffer cells were cultured in RPMI medium supplemented with 10% fetal bovine serum and 1% penicillin and 1% streptomycin in 96 well culture plates at 37° C. to a density of 8000 cells/90 μl/well and the cells were harvested. A series of 3-fold serial dilutions of each test compound of Formula (I) were prepared in RPMI medium and added to the cells at final concentrations ranging from […] to 0.15 nM. The plates were incubated at 37° C. for 96 hours.
After incubation, the cells were pelleted by centrifugation in a pre-cooled 4° C. rotor at 1,100 rpm for 10 min and the supernatant was removed by aspiration. The cell pellet was resuspended in 55 μl of Lysis Buffer (0.4M HCl) and incubated on ice with periodic shaking for 30 minutes. The lysed cells were subjected to centrifugation at 4,200 rpm for 10 min at 4° C. and the supernatant containing acid-soluble proteins was collected and the remainder discarded. The acid-soluble proteins were brought to a neutral pH by the addition of 20 μl of Neutralization Buffer (1 M Sodium phosphate, dibasic (pH 12.5), 2.5 mM DTT and 1 mM PMSF) and the neutralized lysates were analyzed by ELISA.
A 65 μl aliquot of each cell lysate was added to a well of a microwell strip, the microwells were sealed using tape and incubated either at 37° C. for two hours or at 4° C. overnight. After incubation, the tape was removed at the microwells were washed four times using 200 μl of 1× Wash Buffer. To each washed microwell, a 100 μl aliquot of an anti-trimethyl histone H3 Lys27 Detection Antibody solution was added and the microwells were incubated at 37° C. for one hour. The Detection Antibody solution was removed by aspiration and the wells were washed four times each using 200 μl of 1× Wash Buffer.
A 100 μl aliquot of an HRP-linked secondary antibody was added to each well, the wells were sealed with tape and incubated at 37° C. for 30 min. The HRP-linked secondary antibody solution was removed by aspiration and the wells were washed four times using 200 μl of 1× Wash Buffer. A 100 μl aliquot of a TMB substrate was added to each well, the wells were sealed with tape and incubated at 37° C. for 10 min or 25° C. for 30 min. The reaction was stopped by the addition of 100 μl aliquot of a STOP solution and the plate was shaken briefly. The degree of histone H3 trimethylation was determined using a spectrophotometric readout by measuring the absorbance at 450 nm and then calculating the amount of trimethylated histone H3. A=≤100 nM; B=>100 nM−≤500 nM; C=>500 nM and N.D.=not determined.

Experiment [2] deals with purified human, His-tagged PRC2 complex (Homo sapiens (Human), UniProt O75530). The experiment in a line: Hot Spot HMT assay, inhibition of PRC2 enzymatic activity. The experiment is classed as biochemical. To be noted: 10 nM PRC2 complex, 0.05 mg/ml core histone H3, 1 μM 3H-SAM, 1 hr at 30° C.; read-out: IC50, Inhibition of PRC2-mediated Enzymatic Activity. How it is done:
Ten-point dose-response curves for compounds of the present invention were determined using a Hot Spot HMT assay (Reaction Biology Corp; see Horiuchi et al., Assay Drug Dev Technol. (2013) 4: 227-236 doi: 10.1089/adt.2012.480). The assay uses purified human, His-tagged PRC2 complex, including N-terminal His-tagged EZH2 enzyme, N-terminal Flag-tagged embryonic ectoderm development protein (EED), N-terminal His-tagged suppressor of zeste 12 (SUZ12), N-terminal His-tagged AEBP2, and N-terminal His-tagged RbAp48. In this assay, the transfer of the tritiated methyl group from radiolabeled S-adenosyl methionine (SAM) to purified core histone protein by EZH2 is quantitated after filtration to determine the activity of the core PRC2 complex in the presence and absence of compound.
Briefly, compounds of the present invention were solubilized in DMSO and a series of 10, three-fold serial dilutions were made for each compound in 15% DMSO. The initial starting concentration for the serial dilutions of each compound was 1.0 μM. Control samples lacking compound, EZH2 enzyme or various reaction components also were prepared and processed in parallel with compound test samples. SAH (S-(5-adenosyl)-L-homocysteine) was used as a positive control for assay validation.
An aliquot of each serial dilution of test compound was added to deep 384 well plate using Acoustic Technology instrument (Echo 550, LabCyte) containing reaction buffer (50 mM Tris-HCl (pH 8)), 0.01% Brij35, 1 mM EDTA, 1 mM DTT, 1 mM PMSF and 1% DMSO), 10 nM purified PRC2 complex and 0.05 mg/ml core histone H3 in a 5 μl volume. The reaction was mixed gently and then pre-incubated for 20 min at 30° C. The enzymatic reaction was initiated by adding 1 μM S-Adenosyl-L-[methyl-^3H]methionine and incubated for 1 hr at 30° C. After 1 hr, the reaction product was detected using a filter binding method and the amount of tritiated H3 core histone was quantitated using a scintillation counter. The IC50 value for each compound was determined from each 10-point dose-response curve using GraphPad Prism software and the results for compounds of present invention, including compounds of Formula (I) and Formula (II) are shown in Table 6. Key: A=<100 nM; B=>100 nM−<250 nM; and C=>250 nM.

In experiment [3] the test system is Karpas 422 cells (EZH2 Y641N). The experiment in a line: Karpas 422 cell viability (Cell Titre Glo). In kind it is cell-based. The note with it: Homo sapiens, CTG viability, Day 4, Day 7 or Day 11 (time point not given), read-out: IC50 (nM), Inhibiting Proliferation of Cells Expressing an Activating Mutant Form of EZH2. The method, then: Karpas 422 cell line is a human B cell non-Hodgkin's lymphoma cell line established from a patient having DLBCL. This EZH2 heterozygotic cell line expresses a mutant form of EZH2 enzyme (Y641N) that increases histone H3 methylation and this mutation has been implicated in the tumorgenesis of lymphomas, such as DLBCL.
Karpas 422 cells (PHE cat no., 06101702) were cultured in RPMI medium supplemented with 20% fetal bovine serum and 1% penicillin/1% streptomycin and plated at a density of 1000 cells/90 μl/well in 96 well white assay plates. A dose response curve for compounds of the present invention was determined by adding a 10 μl aliquot of stock solutions of varying concentrations of compounds to the same medium in each well, over a concentration range of 10 μM using 3-fold dilutions to a final concentration of 1.5 nM. The plates were incubated at 37° C. for predetermined time periods, Day 4, Day 7, or Day 11, and the viability of the cells was measured using a CTG assay kit (Cell Titre Glo; Promega cat. no G7573) on Day 4 and Day 7 in accordance with the manufacturer's instructions.
For the viability assay for the Day 11 plates, the plates were subjected to centrifugation at 1100 rpm for five minutes on Day 7 and the supernatant was removed by aspiration. The cells were resuspended in 90 μl aliquot of the appropriate growth medium lacking the compound followed by addition of 10 μl of a 10× stock of the same compound at the same concentration. The viability of the Day 11 cells was measured using the CTG assay kit described above in accordance with the manufacturer's instructions. The IC50 values for each compound at each predetermined time point were calculated using Graph pad PRISM software and the results are shown in Table 8. A=≤250 nM; B=[…]−≤500 nM; C=>500 nM and N.D.=not determined.

In US12421228B2 (Mirati Therapeutics, Inc., priority 2019, dated 2025) one finds IC50 data, which are given here for 16 compounds.

Each structure is given as a SMILES string. Bounds are passed on as bounds.

Sequence of purified human, His-tagged PRC2 complex (Q15910 whole entry): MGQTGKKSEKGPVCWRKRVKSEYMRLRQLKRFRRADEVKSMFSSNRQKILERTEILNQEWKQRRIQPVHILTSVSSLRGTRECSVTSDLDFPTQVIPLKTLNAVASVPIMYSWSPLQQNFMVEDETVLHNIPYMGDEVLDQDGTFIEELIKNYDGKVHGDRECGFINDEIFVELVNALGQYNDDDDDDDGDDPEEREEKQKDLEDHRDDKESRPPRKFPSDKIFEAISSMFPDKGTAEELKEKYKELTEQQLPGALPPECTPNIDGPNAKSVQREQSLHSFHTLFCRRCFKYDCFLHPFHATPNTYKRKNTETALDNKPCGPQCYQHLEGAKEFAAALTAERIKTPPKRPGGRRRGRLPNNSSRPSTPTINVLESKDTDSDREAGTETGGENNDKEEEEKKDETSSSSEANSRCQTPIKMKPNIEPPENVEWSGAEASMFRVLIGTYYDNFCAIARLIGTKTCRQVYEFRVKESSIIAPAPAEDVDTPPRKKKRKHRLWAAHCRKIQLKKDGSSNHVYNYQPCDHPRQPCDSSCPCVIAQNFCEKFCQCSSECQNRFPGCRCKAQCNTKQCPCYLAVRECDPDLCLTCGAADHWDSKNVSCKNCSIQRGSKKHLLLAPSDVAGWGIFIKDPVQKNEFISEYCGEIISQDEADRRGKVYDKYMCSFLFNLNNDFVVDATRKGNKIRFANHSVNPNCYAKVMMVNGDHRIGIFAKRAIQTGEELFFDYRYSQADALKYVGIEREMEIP
Sequence of purified human, His-tagged PRC2 complex (O75530 whole entry): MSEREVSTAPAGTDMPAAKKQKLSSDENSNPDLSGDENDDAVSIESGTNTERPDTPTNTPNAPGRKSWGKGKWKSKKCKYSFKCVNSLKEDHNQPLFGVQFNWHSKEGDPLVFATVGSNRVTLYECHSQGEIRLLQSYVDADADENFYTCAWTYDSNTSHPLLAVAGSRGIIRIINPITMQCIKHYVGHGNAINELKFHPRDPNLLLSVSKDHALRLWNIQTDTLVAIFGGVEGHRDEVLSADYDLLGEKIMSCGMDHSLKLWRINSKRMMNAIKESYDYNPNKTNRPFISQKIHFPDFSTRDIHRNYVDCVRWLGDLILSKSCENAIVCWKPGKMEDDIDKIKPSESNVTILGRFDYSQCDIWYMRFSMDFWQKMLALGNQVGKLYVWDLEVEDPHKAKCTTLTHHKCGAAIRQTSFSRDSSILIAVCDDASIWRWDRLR
Sequence of purified human, His-tagged PRC2 complex (Q15022 whole entry partner): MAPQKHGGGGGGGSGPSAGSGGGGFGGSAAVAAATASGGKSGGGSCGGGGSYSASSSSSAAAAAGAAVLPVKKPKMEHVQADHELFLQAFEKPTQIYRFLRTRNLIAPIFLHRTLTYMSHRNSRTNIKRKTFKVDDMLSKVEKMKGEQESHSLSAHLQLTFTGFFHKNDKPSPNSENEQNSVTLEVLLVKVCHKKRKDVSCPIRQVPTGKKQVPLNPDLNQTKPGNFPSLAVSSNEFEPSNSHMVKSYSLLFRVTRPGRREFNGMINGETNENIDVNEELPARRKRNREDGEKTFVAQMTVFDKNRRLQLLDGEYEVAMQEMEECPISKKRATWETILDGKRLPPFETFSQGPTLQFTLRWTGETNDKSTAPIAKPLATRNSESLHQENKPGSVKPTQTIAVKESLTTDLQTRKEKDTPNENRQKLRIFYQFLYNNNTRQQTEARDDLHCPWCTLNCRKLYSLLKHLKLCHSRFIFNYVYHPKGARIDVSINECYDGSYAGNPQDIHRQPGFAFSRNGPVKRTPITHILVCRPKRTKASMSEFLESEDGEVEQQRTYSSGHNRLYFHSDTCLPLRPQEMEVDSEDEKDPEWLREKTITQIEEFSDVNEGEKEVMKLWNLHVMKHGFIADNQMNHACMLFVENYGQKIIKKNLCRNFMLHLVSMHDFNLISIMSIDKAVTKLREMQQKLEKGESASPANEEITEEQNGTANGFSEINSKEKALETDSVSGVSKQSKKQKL
Sequence of purified human, His-tagged PRC2 complex (Q6ZN18 whole entry partner): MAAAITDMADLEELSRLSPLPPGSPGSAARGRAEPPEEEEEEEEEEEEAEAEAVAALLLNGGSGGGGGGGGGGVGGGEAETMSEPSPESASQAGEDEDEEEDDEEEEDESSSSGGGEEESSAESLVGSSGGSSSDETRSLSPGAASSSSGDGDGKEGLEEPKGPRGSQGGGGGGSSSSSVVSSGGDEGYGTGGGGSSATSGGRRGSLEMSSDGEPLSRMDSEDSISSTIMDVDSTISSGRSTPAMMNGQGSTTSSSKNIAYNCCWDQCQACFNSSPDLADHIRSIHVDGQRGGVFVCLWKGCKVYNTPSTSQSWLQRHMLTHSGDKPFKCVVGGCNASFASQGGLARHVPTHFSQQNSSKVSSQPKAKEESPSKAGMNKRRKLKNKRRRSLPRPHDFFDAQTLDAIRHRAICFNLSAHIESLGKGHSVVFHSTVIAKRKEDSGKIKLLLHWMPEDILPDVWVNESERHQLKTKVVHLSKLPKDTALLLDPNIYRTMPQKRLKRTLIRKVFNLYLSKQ
Sequence of purified human, His-tagged PRC2 complex (Q09028 whole entry partner): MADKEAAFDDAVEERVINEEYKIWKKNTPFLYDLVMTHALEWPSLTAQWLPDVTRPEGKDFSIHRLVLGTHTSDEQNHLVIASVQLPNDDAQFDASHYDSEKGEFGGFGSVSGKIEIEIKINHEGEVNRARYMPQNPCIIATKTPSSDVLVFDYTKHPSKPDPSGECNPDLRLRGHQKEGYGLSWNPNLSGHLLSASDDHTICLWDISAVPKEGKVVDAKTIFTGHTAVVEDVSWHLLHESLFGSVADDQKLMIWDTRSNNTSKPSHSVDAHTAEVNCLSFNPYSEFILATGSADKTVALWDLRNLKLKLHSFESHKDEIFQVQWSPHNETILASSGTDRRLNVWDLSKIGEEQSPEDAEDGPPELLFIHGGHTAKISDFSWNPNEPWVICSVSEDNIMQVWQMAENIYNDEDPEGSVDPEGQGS

For `CN(C)Cc1ccc(-c2cnc(NCc3c(F)ccc4c3CCO4)c3c[nH]c(=O)cc23)cc1` [Example 38], the IC50 is 100 to 500 nM in experiment [1], 100 to 250 nM in experiment [2] and at most 250 nM in experiment [3].
In the same order, the values of `CN(C)CCn1nccc1-c1cnc(NCc2c(F)ccc3c2CCO3)c2c[nH]c(=O)cc12` [Example 46, 5-(1-(2-(dimethylamino)ethyl)-1H-pyrazol-5-yl)-8-(((5-fluoro-2,3-dihydrobenzofuran-4-yl)methyl)amino)-2,7-naphthyridin-3(2H)-one] are 100 to 500 nM, over 250 nM and at most 250 nM.
In the same order, the values of `CN(C)Cc1ccc(-c2cnc(NCc3cccc4c3CCO4)c3cncnc23)cc1` [Example 25] are 100 to 500 nM, over 250 nM and at most 250 nM.
For `Cc1cc(-c2cnc(NCc3c(F)ccc4c3CCO4)c3cncnc23)n(C)n1` [Example 22, 8-(1,3-dimethyl-1H-pyrazol-5-yl)-N-((5-fluoro-2,3-dihydrobenzofuran-4-yl)methyl)pyrido[4,3-d]pyrimidin-5-amine], the IC50 in experiment [1] is at most 100 nM; in experiment [2], under 100 nM; in experiment [3] it was at most 250 nM.
As to `Cn1nc(C#N)cc1-c1cnc(NCc2c(F)ccc3c2CCO3)c2c[nH]c(=O)cc12` [Example 48], the values for the IC50 in experiment [1], in experiment [2] and in experiment [3] were 100 to 500 nM, under 100 nM and at most 250 nM, respectively.
For `CN(C)S(=O)(=O)c1ccc(-c2cnc(NCc3c(F)ccc4c3CCO4)c3cnncc23)cn1` [Example 10], in that order: at most 100 nM, under 100 nM and at most 250 nM.
For `NS(=O)(=O)c1ccc(-c2cnc(NCc3c(F)ccc4c3CCO4)c3cnncc23)cc1` [Example 1], in that order: at most 100 nM, under 100 nM and at most 250 nM.
As to `CNCc1ccc(-c2cnc(NCc3c(F)ccc4c3CCO4)c3cncnc23)c(C)c1` [Example 26, N-((5-fluoro-2,3-dihydrobenzofuran-4-yl)methyl)-8-(2-methyl-4-((methylamino)methyl)phenyl)pyrido[4,3-d]pyrimidin-5-amine], the values for the IC50 in experiment [1], in experiment [2] and in experiment [3] were at most 100 nM, under 100 nM and at most 250 nM, respectively.
For `Fc1ccc2c(c1CNc1ncc(-c3ccc(CN4CCCC4)cc3)c3cnncc13)CCO2` [Example 2], in that order: at most 100 nM, under 100 nM and at most 250 nM.
`Cn1nc(C#N)cc1-c1cnc(NCc2c(F)ccc3c2CCO3)c2cnccc12` [Example 33, 5-[1-[(5-fluoro-2,3-dihydrobenzofuran-4-yl)methylamino]-2,7-naphthyridin-4-yl]-1-methyl-pyrazole-3-carbonitrile]: the IC50 in experiment [1] was over 500 nM; in experiment [2] it was 100 to 250 nM; in experiment [3], over 500 nM.
As for `COc1ncc2c(NCc3c(F)ccc4c3CCO4)ncc(-c3cc(C)nn3C)c2n1` [Example 28, 8-(1,3-dimethyl-1H-pyrazol-5-yl)-N-((5-fluoro-2,3-dihydrobenzofuran-4-yl)methyl)-2-methoxypyrido[4,3-d]pyrimidin-5-amine], the IC50 in experiment [1] was 100 to 500 nM; in experiment [2], under 100 nM; in experiment [3], at most 250 nM.
For `Cc1cc(S(C)(=O)=O)ccc1-c1cnc(NCc2c(F)ccc3c2CCO3)c2cnccc12` [Example 31], the IC50 is over 500 nM in experiment [1], 100 to 250 nM in experiment [2] and over 500 nM in experiment [3].
For `Cc1ncccc1-c1cnc(NCc2c(F)ccc3c2CCO3)c2c[nH]c(=O)cc12` [Example 36], the IC50 in experiment [1] was 100 to 500 nM; in experiment [2] it was over 250 nM; in experiment [3], at most 250 nM.
Take `CN(C)C(=O)c1cc(-c2cnc(NCc3c(F)ccc4c3CCO4)c3c[nH]c(=O)cc23)n(C)n1` [Example 47, 5-(1-(((5-fluoro-2,3-dihydrobenzofuran-4-yl)methyl)amino)-6-oxo-6,7-dihydro-2,7-naphthyridin-4-yl)-N,N,1-trimethyl-1H-pyrazole-3-carboxamide]: the IC50 is 100 to 500 nM in experiment [1], under 100 nM in experiment [2] and at most 250 nM in experiment [3].
Consider `CN(C)Cc1ccc(-c2cnc(NCc3c(F)ccc4c3CCO4)c3cncnc23)cc1` [Example 23], for which the figures for the IC50 in experiment [1], in experiment [2] and in experiment [3] were 100 to 500 nM, under 100 nM and at most 250 nM, respectively.
In the same order, the values of `Cc1cc(-c2cnc(NCc3c(F)ccc4c3CCO4)c3cnc(N)cc23)n(C)n1` [Example 50, 4-(1,3-dimethyl-1H-pyrazol-5-yl)-N^1-((5-fluoro-2,3-dihydrobenzofuran-4-yl)methyl)-2,7-naphthyridine-1,6-diamine] are over 500 nM, over 250 nM and over 500 nM.
